IC50 and EC50 data for four compounds are collected here from US20110178053A1, “AZACARBOLINE DERIVATIVES, PREPARATION METHOD THEREOF AND THERAPEUTIC USE OF SAME” (SANOFI-AVENTIS, priority 2008, published 2011).

The structures appear in SMILES notation.

One experiment deals with T1, Pim-1 (Homo sapiens, UniProt P11309).
T1 construct: His6-labelled recombinant full-length human Pim-1, Pim-2 or Pim-3 protein; His6; made in house
Kind of experiment: TR-FRET assay, Pim-1 kinase (phosphorylation of Bad Ser112). Format: biochemical. Particulars: TR-FRET; ATP 40 μM; read-out: IC50 Pim1. In a few lines: (§1)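 For each of Pim-1, Pim-2 and Pim-3 (His6-tagged full-length human), compounds were titrated over 10 concentrations in duplicate, typically from 30 μM, with ATP at 40 μM, equal to apparent KM. Bad Ser112 phosphorylation was read as the 665/615 nm TR-FRET ratio and IC50 fitted by 4-parameter logistic model.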

For the next experiment, the target named is T2, Pim-2 (Homo sapiens, UniProt Q9P1W9).
T2 construct: His6-labelled recombinant full-length human Pim-1, Pim-2 or Pim-3 protein; His6; made in house
T2 sequence (Q9P1W9 whole entry): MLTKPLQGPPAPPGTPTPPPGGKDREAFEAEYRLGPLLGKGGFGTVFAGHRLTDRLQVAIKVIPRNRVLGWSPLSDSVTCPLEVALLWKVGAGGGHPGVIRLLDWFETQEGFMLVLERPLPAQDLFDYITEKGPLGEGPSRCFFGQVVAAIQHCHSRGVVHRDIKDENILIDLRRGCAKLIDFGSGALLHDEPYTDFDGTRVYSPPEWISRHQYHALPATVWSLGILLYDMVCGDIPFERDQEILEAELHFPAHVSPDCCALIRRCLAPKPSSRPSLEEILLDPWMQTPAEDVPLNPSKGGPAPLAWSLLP
Kind of experiment: TR-FRET assay, Pim-2 kinase (phosphorylation of Bad Ser112). Format: biochemical. As to conditions: TR-FRET; ATP 40 μM; read-out: IC50 Pim2. In a few lines: as §1
Background: Time-resolved FRET reads energy transfer from a long-lived donor to a nearby acceptor.

The next experiment has as its target T3, Pim-3 (Homo sapiens, UniProt Q86V86).
T3 construct: His6-labelled recombinant full-length human Pim-1, Pim-2 or Pim-3 protein; His6; made in house
Kind of experiment: TR-FRET assay, Pim-3 kinase (phosphorylation of Bad Ser112). As to conditions: TR-FRET; ATP 40 μM; read-out: IC50 Pim3. Type of experiment: biochemical. In a few lines:
as §1

A further experiment concerns the target PLK1 (Homo sapiens, UniProt P53350). Nature of the experiment: PLK1 biochemical inhibition.
In a further experiment the test system is PI3K. Nature of the experiment: PI3K biochemical inhibition.
The subject of another experiment is EOL-1. Kind of experiment: Cell viability assay (CellTiter-Blue), EOL-1. Format: cell-based. As to conditions: Homo sapiens, EOL1, read-out: EC50 EOL-1 μM (lymphoma); EOL-1 cells; cell proliferation/viability. From the text: (§2) The representative compounds of the invention are also screened as regards their effects on cell proliferation and viability using a variety of human tumour cell lines, which are representative of various pathological indications. These cell lines include: • Models of haematological cancers: • TF-1 (acute myelogenic leukaemia; AML M6 at the time of diagnosis); • KG-1 (AML; erythroleukaemia evolving into AML); • KG-1a (AML; sub-clone derived from immature KG-1); • EOL-1 (AML; eosinophilic leukaemia); • PL-21 (AML; M3); • ML-2 (AML; T-NHL evolving into T-ALL evolving into AML M4); • HL-60 (AML, M3); • Kasumi-1 (AML); • GDM-1 (AML); • K-562 (CML—chronic myelogenic leukaemia; blastic crisis); • JURL-MK1 (CML; blastic crisis); • DND-41 (T-ALL—-cell acute lymphoblastic leukaemia); • Jurkat (T-ALL); NALM-6 (B-ALL—B-cell ALL); • CEM (ALL; lymphosarcoma evolving into ALL); • Jeko-1 (B-NHL—B-cell non-Hodgkin lymphoma; mantle-cell lymphoma derived from a variant with large cells as a leukaemic transformation); • WSU-DLCL2 (B-NHL; large B-cell diffuse lymphoma); • RL (B-NHL; undifferentiated diffuse); • OCI-Ly10 (B-NHL); • DoHH-2 (B-NHL); • RPMI-8226 (MM—multiple myeloma); • JVM-2 (B-CLL—B-cell chronic lymphocytic leukaemia); and • JVM-3 (B-CLL) • MV4-11 (AML) • MOLM13 (AML). • Solid tumour models: • HCT-116 (bowel cancer); • HT-29 (bowel cancer); • HC-15 (bowel cancer); • H460 (lung cancer; non-small-cell lung cancer); • A375 (melanoma); • B16F10 (melanoma); • MDA-A1 (breast cancer); • MDA-MB231 (breast cancer); • MDA-MB231 adr (breast cancer); • PANC-1 (pancreatic cancer); and • PC-3 (prostate cancer).
(§3) In order to measure the viability, the tumour cells are incubated in a 96-well or 384-well format for 48, 72 or 96 hours, preferably 72 hours, with a compound of the invention at dilutions of a factor 3 with, in general, nine doses in total, the highest dose being equal to 10 μM or 30 μM. The cell viability is evaluated by adding CellTiter-Blue® (Promega, Madison, Wis., United States) for 4 hours and end-point readings are taken using a SpectraMax Genmini EM (Molecular Devices, Sunnyvale, Calif., United States). The CellTiter-Blue® cell viability assay measures the ability of the cells in culture to reduce resazurin to resorufin, the fluorescence signal intensity being directly proportional to the number of live cells.
On the technique in general: The colour change of resazurin is a common sign of viable cells or microbes.

The test system of a further experiment is MV4-11. Nature of the experiment: Cell viability assay (CellTiter-Blue), MV4-11. Format: cell-based. As to conditions: Homo sapiens; MV4-11 cells; cell proliferation/viability; read-out: IC50 MV4-11 μM (myeloma).
Source text: as §2, §3

Another experiment relates to MOLM-13. Kind of experiment: Cell viability assay (CellTiter-Blue), MOLM-13. Format: cell-based. As to conditions: Homo sapiens; MOLM-13 cells; cell proliferation/viability; read-out: IC50 MOLM-13 μM (myeloma).
Source text: as §2, §3

A further experiment deals with HCT116. Nature of the experiment: Cell viability assay (CellTiter-Blue), HCT116. Particulars: Homo sapiens, HCT-116; HCT116 cells; cell proliferation/viability; read-out: EC50 HCT116 μM (bowel). Type of experiment: cell-based. As to the method:
(§4) The representative compounds of the invention are also screened as regards their effects on cell proliferation and viability using a variety of human tumour cell lines, which are representative of various pathological indications. […]
as §3

The subject of the next experiment is B16F10. Nature of the experiment: Cell viability assay (CellTiter-Blue), B16F10. Type of experiment: cell-based, human. As to conditions: Mus musculus, B16-F10; B16F10 cells; cell proliferation/viability; read-out: EC50 B16F10 μM (melanoma). As for the experimental part:
as §4, §3

The subject of a further experiment is H460. Nature of the experiment: Cell viability assay (CellTiter-Blue), H460. Particulars: Homo sapiens, NCI-H460; H460 cells; cell proliferation/viability; read-out: EC50 H460 μM (lung). Type of experiment: cell-based. As for the experimental part: as §4, §3
The next experiment has as its system KG-1a. Nature of the experiment: Cell viability assay (CellTiter-Blue), KG-1a. Format: cell-based. Particulars: Homo sapiens; KG-1a cells; cell proliferation/viability; read-out: EC50 KG-1a μM (leukaemia).
Source text: as §2, §3

T1 sequence (P11309 whole entry): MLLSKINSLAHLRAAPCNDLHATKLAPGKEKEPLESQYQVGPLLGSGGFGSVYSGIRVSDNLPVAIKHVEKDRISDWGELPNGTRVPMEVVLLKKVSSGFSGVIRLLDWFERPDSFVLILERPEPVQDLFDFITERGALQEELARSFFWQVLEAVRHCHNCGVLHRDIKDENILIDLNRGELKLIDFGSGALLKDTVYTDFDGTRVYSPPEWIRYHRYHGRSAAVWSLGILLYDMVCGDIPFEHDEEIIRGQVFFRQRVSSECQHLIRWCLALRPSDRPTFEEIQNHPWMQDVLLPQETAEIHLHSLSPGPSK
Sequence of PLK1 (P53350 whole entry, species assumed): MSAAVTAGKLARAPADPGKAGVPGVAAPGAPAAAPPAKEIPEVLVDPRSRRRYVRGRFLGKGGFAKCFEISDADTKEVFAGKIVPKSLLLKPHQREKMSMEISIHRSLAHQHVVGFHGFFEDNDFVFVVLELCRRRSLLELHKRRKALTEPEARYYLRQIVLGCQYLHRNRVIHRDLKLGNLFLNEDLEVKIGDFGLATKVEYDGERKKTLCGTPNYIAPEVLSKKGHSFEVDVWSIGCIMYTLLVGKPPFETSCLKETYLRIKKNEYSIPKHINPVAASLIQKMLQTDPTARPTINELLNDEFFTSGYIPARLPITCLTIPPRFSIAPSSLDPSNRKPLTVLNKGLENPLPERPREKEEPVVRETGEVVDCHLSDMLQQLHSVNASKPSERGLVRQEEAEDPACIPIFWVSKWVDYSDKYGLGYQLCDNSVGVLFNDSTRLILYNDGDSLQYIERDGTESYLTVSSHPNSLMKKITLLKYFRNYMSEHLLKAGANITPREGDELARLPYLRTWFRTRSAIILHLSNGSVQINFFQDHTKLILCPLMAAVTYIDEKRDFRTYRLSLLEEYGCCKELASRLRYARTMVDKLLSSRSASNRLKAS

For the compound `CS(=O)(=O)Nc1ccc(-c2c(F)cnc3[nH]c4cnc(-c5cccnc5)cc4c23)cc1` [Example 22, N-[4-(3-Fluoro-6-(pyrid-3-yl)-9H-pyrrolo[2,3-b:5,4-c′]dipyrid-4-yl)-phenyl]methanesulfon-amide], the IC50 is 1 to 100 nM at Pim-1; 100 to 1000 nM on Pim-2; 1 to 100 nM on Pim-3; 1 to 100 nM against PLK1; 100 to 1000 nM with PI3K; 1 to 100 nM in the experiment with MV4-11. In addition, in the experiment with MOLM-13, the concentration for half-maximal inhibition (IC50) fell in the range of 1 to 100 nM. The EC50 with EOL-1, in the experiment on HCT116, in the experiment with B16F10 and with H460 was 1 to 100 nM in each case.

Take `Cn1cc(-c2cc3c(cn2)[nH]c2ncccc23)cn1` [Example 39, 6-(1-Methyl-1H-pyrazol-4-yl)-9H-pyrrolo[2,3-b:5,4-c′]dipyridine]: the IC50 was in the range of 1 to 100 nM on Pim-1; 1000 to 5000 nM on Pim-2; 100 to 1000 nM on Pim-3; 1000 to 5000 nM on PLK1; 1000 to 5000 nM with MV4-11; 1000 to 5000 nM in the experiment on MOLM-13. Moreover, the results for the EC50 in the experiment with EOL-1 and in the experiment on KG-1a were 100 to 1000 nM and 0.1 to 1 µM, respectively.

Consider `CC(C)(C)OC(=O)c1cnc2[nH]c3cnc(-c4cccnc4)cc3c2c1` [Example 5, 2-methylpropan-2-yl 6-(pyrid-3-yl)-9H-pyrrolo[2,3-b:5,4-c′]dipyridine-3-carboxylate], for which the IC50 was 1 to 100 nM at Pim-1; more than 5000 nM at Pim-2; 100 to 1000 nM on Pim-3; more than 5000 nM on PLK1; 100 to 1000 nM with MV4-11. The EC50 in the experiment on EOL-1 fell in the range of 100 to 1000 nM; with KG-1a, 0.1 to 1 µM.

Turning to `c1cncc(-c2cc3c(cn2)[nH]c2ncc(N4CCOCC4)cc23)c1` [Example 14, 3-(morpholin-4-yl)-6-(pyrid-3-yl)-9H-pyrrolo[2,3-b:5,4-c′]dipyridine], the IC50 on Pim-1 is 1 to 100 nM; on Pim-2, 1000 to 5000 nM; at Pim-3, 1 to 100 nM; at PLK1, more than 5000 nM; in the experiment with MV4-11 it was 100 to 1000 nM. In addition, the EC50 is 100 to 1000 nM with EOL-1 and 1 to 5 µM with KG-1a.

Broadly, the IC50 is the midpoint of a concentration-inhibition curve. The term EC50 denotes the concentration needed to bring the measured effect to its halfway point.
